Assay results from ChEMBL document CHEMBL2440076, “New triarylpyrazoles as broad-spectrum anticancer agents: design, synthesis, and biological evaluation” (Eur J Med Chem, 2013).

How the values were obtained:
[1] = Growth inhibition of human Hs 578T cells assessed as cell growth at 10 uM after 48 hrs by sulforhodamine B assay; format: functional; conditions: read-out: Activity
RPMI-8226 = assay: Growth inhibition of human RPMI8226 cells after 48 hrs by sulforhodamine B assay; format: functional, cell-based; conditions: RPMI-8226, 48 h; for CC50: read-out: LC50 (the source's name)
BT-549 = assay: Growth inhibition of human BT549 cells assessed as cell growth at 10 uM after 48 hrs by sulforhodamine B assay; format: functional; conditions: BT-549, 48 h, read-out: Activity
RXF 393 = assay: Growth inhibition of human RXF393 cells assessed as cell growth at 10 uM after 48 hrs by sulforhodamine B assay; format: functional; conditions: RXF 393, 48 h, read-out: Activity
SK-OV-3 [2] = assay: Growth inhibition of human SKOV3 cells after 48 hrs by sulforhodamine B assay; format: functional; conditions: SK-OV-3, 48 h; for CC50: read-out: LC50 (the source's name)
HCT-116 = assay: Growth inhibition of human HCT116 cells assessed as cell growth at 10 uM after 48 hrs by sulforhodamine B assay; format: functional; conditions: HCT-116, 48 h, read-out: Activity
786-0 = assay: Growth inhibition of human 786-0 cells assessed as cell growth at 10 uM after 48 hrs by sulforhodamine B assay; format: functional; conditions: 786-0, 48 h, read-out: Activity
HL-60(TB) = assay: Growth inhibition of human HL-60(TB) cells assessed as cell growth at 10 uM after 48 hrs by sulforhodamine B assay; format: functional; conditions: HL-60, 48 h, read-out: Activity
A498 = assay: Growth inhibition of human A498 cells assessed as cell growth at 10 uM after 48 hrs by sulforhodamine B assay; format: functional; conditions: A498, 48 h, read-out: Activity
SNB-19 = assay: Growth inhibition of human SNB19 cells assessed as cell growth at 10 uM after 48 hrs by sulforhodamine B assay; format: functional; conditions: SNB-19, 48 h, read-out: Activity
UACC-257 = assay: Growth inhibition of human UACC257 cells assessed as cell growth at 10 uM after 48 hrs by sulforhodamine B assay; format: functional; conditions: UACC-257, 48 h, read-out: Activity
SNB-75 = assay: Growth inhibition of human SNB75 cells after 48 hrs by sulforhodamine B assay; format: functional; conditions: SNB-75, 48 h
SK-MEL-28 = assay: Growth inhibition of human SK-MEL-28 cells after 48 hrs by sulforhodamine B assay; format: functional; conditions: SK-MEL-28, 48 h
TK-10 = assay: Growth inhibition of human TK10 cells after 48 hrs by sulforhodamine B assay; format: functional; conditions: TK-10, 48 h; for CC50: read-out: LC50 (the source's name)
SK-MEL-5 [3] = assay: Growth inhibition of human SK-MEL-5 cells assessed as cell growth at 10 uM after 48 hrs by sulforhodamine B assay; format: functional; conditions: SK-MEL-5, 48 h, read-out: Activity
PC-3 = assay: Growth inhibition of human PC3 cells assessed as cell growth at 10 uM after 48 hrs by sulforhodamine B assay; format: functional; conditions: PC-3, 48 h, read-out: Activity
UACC-62 = assay: Growth inhibition of human UACC62 cells assessed as cell growth at 10 uM after 48 hrs by sulforhodamine B assay; format: functional; conditions: UACC-62, 48 h, read-out: Activity
T47D = assay: Growth inhibition of human T47D cells after 48 hrs by sulforhodamine B assay; format: functional; conditions: for CC50: read-out: LC50 (the source's name)
UO-31 = assay: Growth inhibition of human UO31 cells assessed as cell growth at 10 uM after 48 hrs by sulforhodamine B assay; format: functional; conditions: UO-31, 48 h, read-out: Activity
ACHN = assay: Growth inhibition of human ACHN cells assessed as cell growth at 10 uM after 48 hrs by sulforhodamine B assay; format: functional; conditions: read-out: Activity
SK-MEL-2 = assay: Growth inhibition of human SK-MEL-2 cells assessed as cell growth at 10 uM after 48 hrs by sulforhodamine B assay; format: functional; conditions: SK-MEL-2, 48 h, read-out: Activity
SK-OV-3 [4] = assay: Growth inhibition of human SKOV3 cells assessed as cell growth at 10 uM after 48 hrs by sulforhodamine B assay; format: functional; conditions: SK-OV-3, 48 h, read-out: Activity
OVCAR-3 = assay: Growth inhibition of human OVCAR3 cells assessed as cell growth at 10 uM after 48 hrs by sulforhodamine B assay; format: functional; conditions: OVCAR-3, 48 h, read-out: Activity
A549 = assay: Growth inhibition of human A549/ATCC cells after 48 hrs by sulforhodamine B assay; format: functional; conditions: A549, 48 h
K562 = assay: Growth inhibition of human K562 cells after 48 hrs by sulforhodamine B assay; format: functional; conditions: K562, 48 h; for CC50: read-out: LC50 (the source's name)
MDA-MB-468 = assay: Growth inhibition of human MDA-MB-468 cells after 48 hrs by sulforhodamine B assay; format: functional, cell-based; conditions: MDA-MB-468, 48 h; for CC50: read-out: LC50 (the source's name)
HT-29 = assay: Growth inhibition of human HT-29 cells after 48 hrs by sulforhodamine B assay; format: functional; conditions: HT-29, 48 h; for CC50: read-out: LC50 (the source's name)
U-251 = assay: Growth inhibition of human U251 cells after 48 hrs by sulforhodamine B assay; format: functional; conditions: U-251, 48 h
SN12C = assay: Growth inhibition of human SN12C cells assessed as cell growth at 10 uM after 48 hrs by sulforhodamine B assay; format: functional; conditions: read-out: Activity
NCI-H23 = assay: Growth inhibition of human NCI-H23 cells after 48 hrs by sulforhodamine B assay; format: functional; conditions: NCI-H23, 48 h
SF-539 = assay: Growth inhibition of human SF539 cells after 48 hrs by sulforhodamine B assay; format: functional; conditions: SF-539, 48 h
DU-145 = assay: Growth inhibition of human DU145 cells after 48 hrs by sulforhodamine B assay; format: functional; conditions: DU-145, 48 h
[5] = Growth inhibition of human HCC2998 cells after 48 hrs by sulforhodamine B assay; format: functional; conditions: HCC 2998, 48 h; for CC50: read-out: LC50 (the source's name)
SK-MEL-5 [6] = assay: Growth inhibition of human SK-MEL-5 cells after 48 hrs by sulforhodamine B assay; format: functional; conditions: SK-MEL-5, 48 h

O=C(Nc1cccc(-n2cc(-c3ccncc3)c(-c3ccc(Cl)c(O)c3)n2)c1)Nc1cc(C(F)(F)F)cc(C(F)(F)F)c1
growth at 10 µM [1]: -26%
GI50 (RPMI-8226): 477 nM
IC50 (RPMI-8226): 480 nM
TGI (RPMI-8226): > 50000 nM
CC50 (RPMI-8226): > 50000 nM
growth at 10 µM (BT-549): -36%
growth at 10 µM (RXF 393): -66.7%
GI50 (SK-OV-3 [2]): 1350 nM
TGI (SK-OV-3 [2]): 3810 nM
CC50 (SK-OV-3 [2]): > 50000 nM
growth at 10 µM (HCT-116): -59.1%
growth at 10 µM (786-0): -46.8%
growth at 10 µM (HL-60(TB)): -18.3%
growth at 10 µM (A498): -18.6%
growth at 10 µM (SNB-19): 11.3%
growth at 10 µM (UACC-257): -50.9%
GI50 (SNB-75): 877 nM
LC50 (lethal concentration, 50% net cell kill) (SNB-75): 7030 nM
TGI (SNB-75): 2180 nM
GI50 (SK-MEL-28): 796 nM
LC50 (SK-MEL-28): 3090 nM
TGI (SK-MEL-28): 1570 nM
GI50 (TK-10): 959 nM
TGI (TK-10): 3580 nM
CC50 (TK-10): 14200 nM
growth at 10 µM (SK-MEL-5 [3]): -94.7%
growth at 10 µM (PC-3): -32.4%
growth at 10 µM (UACC-62): -65.6%
GI50 (T47D): 1820 nM
TGI (T47D): 14000 nM
CC50 (T47D): > 50000 nM
growth at 10 µM (UO-31): -34.4%
growth at 10 µM (ACHN): 8.48%
growth at 10 µM (SK-MEL-2): -73.7%
growth at 10 µM (SK-OV-3 [4]): -24.4%
growth at 10 µM (OVCAR-3): -67.5%
GI50 (A549): 298 nM
LC50 (concentration killing 50% of starting cells) (A549): 11400 nM
TGI (A549): 1690 nM
GI50 (K562): 433 nM
TGI (K562): 3930 nM
CC50 (K562): > 50000 nM
GI50 (MDA-MB-468): 265 nM
IC50 (MDA-MB-468): 270 nM
TGI (MDA-MB-468): 2660 nM
CC50 (MDA-MB-468): 37100 nM
GI50 (HT-29): 746 nM
TGI (HT-29): 1870 nM
CC50 (HT-29): 4670 nM
GI50 (U-251): 463 nM
LC50 (concentration killing 50% of cells) (U-251): 2800 nM
TGI (U-251): 1170 nM
growth at 10 µM (SN12C): -36.1%
GI50 (NCI-H23): 1020 nM
LC50 (NCI-H23): 18200 nM
TGI (NCI-H23): 3270 nM
GI50 (SF-539): 765 nM
LC50 (concentration killing 50% of cells) (SF-539): 2890 nM
TGI (SF-539): 1490 nM
GI50 (DU-145): 1250 nM
LC50 (DU-145): 17400 nM
TGI (DU-145): 5620 nM
GI50 [5]: 1030 nM
TGI [5]: 2410 nM
CC50 [5]: 7160 nM
GI50 (SK-MEL-5 [6]): 600 nM
LC50 (concentration killing 50% of cells) (SK-MEL-5 [6]): 2620 nM
TGI (SK-MEL-5 [6]): 1250 nM

O=C(Nc1cccc(-n2cc(-c3ccncc3)c(-c3ccc(Cl)c(O)c3)n2)c1)Nc1cccc(C(F)(F)F)c1
growth at 10 µM [1]: 29.4%
GI50 (RPMI-8226): 1340 nM
IC50 (RPMI-8226): 1340 nM
TGI (RPMI-8226): > 32500 nM
CC50 (RPMI-8226): > 32500 nM
growth at 10 µM (BT-549): 36%
growth at 10 µM (RXF 393): 31.3%
GI50 (SK-OV-3 [2]): 4970 nM
TGI (SK-OV-3 [2]): > 32500 nM
CC50 (SK-OV-3 [2]): > 32500 nM
growth at 10 µM (HCT-116): 9.75%
growth at 10 µM (786-0): 34.4%
growth at 10 µM (HL-60(TB)): 12.5%
growth at 10 µM (A498): 17.7%
growth at 10 µM (SNB-19): 32.5%
growth at 10 µM (UACC-257): -11.6%
GI50 (SNB-75): 3650 nM
LC50 (lethal concentration, 50% net cell kill) (SNB-75): > 32500 nM
TGI (SNB-75): > 32500 nM
GI50 (SK-MEL-28): 4110 nM
LC50 (SK-MEL-28): > 32500 nM
TGI (SK-MEL-28): > 32500 nM
GI50 (TK-10): 2120 nM
TGI (TK-10): > 32500 nM
CC50 (TK-10): > 32500 nM
growth at 10 µM (SK-MEL-5 [3]): -25.5%
growth at 10 µM (PC-3): 4.28%
growth at 10 µM (UACC-62): 10.4%
GI50 (T47D): 2470 nM
TGI (T47D): > 32500 nM
CC50 (T47D): > 32500 nM
growth at 10 µM (UO-31): 24.8%
growth at 10 µM (ACHN): 11.2%
growth at 10 µM (SK-MEL-2): -25.6%
growth at 10 µM (SK-OV-3 [4]): 21.2%
growth at 10 µM (OVCAR-3): 0.81%
GI50 (A549): 1370 nM
LC50 (concentration killing 50% of starting cells) (A549): > 32500 nM
TGI (A549): > 32500 nM
GI50 (K562): 1440 nM
TGI (K562): > 32500 nM
CC50 (K562): > 32500 nM
GI50 (MDA-MB-468): 980 nM
IC50 (MDA-MB-468): 980 nM
TGI (MDA-MB-468): 7830 nM
CC50 (MDA-MB-468): > 32500 nM
GI50 (HT-29): 9820 nM
TGI (HT-29): > 32500 nM
CC50 (HT-29): > 32500 nM
GI50 (U-251): 1590 nM
LC50 (concentration killing 50% of cells) (U-251): > 32500 nM
TGI (U-251): 7650 nM
growth at 10 µM (SN12C): 14.6%
GI50 (NCI-H23): 1900 nM
LC50 (NCI-H23): > 32500 nM
TGI (NCI-H23): > 32500 nM
GI50 (SF-539): 3540 nM
LC50 (concentration killing 50% of cells) (SF-539): > 32500 nM
TGI (SF-539): 11600 nM
GI50 (DU-145): 1760 nM
LC50 (DU-145): > 32500 nM
TGI (DU-145): > 32500 nM
GI50 [5]: 7260 nM
TGI [5]: > 32500 nM
CC50 [5]: > 32500 nM
GI50 (SK-MEL-5 [6]): 1300 nM
LC50 (concentration killing 50% of cells) (SK-MEL-5 [6]): 13800 nM
TGI (SK-MEL-5 [6]): 4710 nM
